The values below come from patent US10815210B2, “Benzocyclobutane derivatives useful as dual SGLT1 / SGLT2 modulators” (Janssen Pharmaceutica NV, priority 2016, dated 2020).

The target of one assay is T1, human SGLT2 (Homo sapiens, UniProt P31639).
T1 construct: expressed in transfected cells; host or cells: CHO-K1
T1 sequence (P31639 1-672): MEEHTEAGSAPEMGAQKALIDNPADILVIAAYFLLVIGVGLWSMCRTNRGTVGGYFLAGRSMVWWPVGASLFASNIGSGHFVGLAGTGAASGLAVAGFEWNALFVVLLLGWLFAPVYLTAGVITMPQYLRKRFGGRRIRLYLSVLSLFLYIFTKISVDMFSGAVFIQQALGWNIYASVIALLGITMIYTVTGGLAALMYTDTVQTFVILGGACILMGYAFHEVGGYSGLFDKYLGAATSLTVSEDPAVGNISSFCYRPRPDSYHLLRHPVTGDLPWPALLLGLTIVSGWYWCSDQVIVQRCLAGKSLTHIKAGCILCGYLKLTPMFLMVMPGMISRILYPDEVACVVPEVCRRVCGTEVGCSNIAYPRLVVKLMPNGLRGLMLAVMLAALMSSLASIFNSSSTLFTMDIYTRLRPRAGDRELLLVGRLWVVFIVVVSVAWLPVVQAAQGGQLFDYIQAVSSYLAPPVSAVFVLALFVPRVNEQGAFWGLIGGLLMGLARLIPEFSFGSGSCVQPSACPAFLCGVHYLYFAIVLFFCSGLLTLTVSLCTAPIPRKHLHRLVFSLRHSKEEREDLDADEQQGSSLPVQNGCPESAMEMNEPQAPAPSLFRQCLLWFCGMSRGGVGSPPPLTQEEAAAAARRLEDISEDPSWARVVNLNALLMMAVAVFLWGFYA
Put plainly: SGLT2 assay: Na-dependent 14C-AMG uptake in CHO-K1 cells stably expressing human SGLT2. The format is cell-based. Particulars: for IC50: 500 μM AMG, 2 hours at 37° C. In short, it runs like this: (§1)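 CHO-K1 cells stably expressing human SGLT1 or SGLT2, pretreated 24 h with 10 mM Na-butyrate, were exposed 10 min to compound (0.001-10 μM) in Na-containing HEPES/Tris buffer pH 7.4. Uptake of ^14C-AMG (500 μM final) ran 2 h at 37° C, then Na-dependent uptake was counted by scintillation.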

A further assay concerns the target T2, human SGLT1 (Homo sapiens, UniProt P13866).
T2 construct: expressed in transfected cells; host or cells: CHO-K1
T2 sequence (P13866 1-664): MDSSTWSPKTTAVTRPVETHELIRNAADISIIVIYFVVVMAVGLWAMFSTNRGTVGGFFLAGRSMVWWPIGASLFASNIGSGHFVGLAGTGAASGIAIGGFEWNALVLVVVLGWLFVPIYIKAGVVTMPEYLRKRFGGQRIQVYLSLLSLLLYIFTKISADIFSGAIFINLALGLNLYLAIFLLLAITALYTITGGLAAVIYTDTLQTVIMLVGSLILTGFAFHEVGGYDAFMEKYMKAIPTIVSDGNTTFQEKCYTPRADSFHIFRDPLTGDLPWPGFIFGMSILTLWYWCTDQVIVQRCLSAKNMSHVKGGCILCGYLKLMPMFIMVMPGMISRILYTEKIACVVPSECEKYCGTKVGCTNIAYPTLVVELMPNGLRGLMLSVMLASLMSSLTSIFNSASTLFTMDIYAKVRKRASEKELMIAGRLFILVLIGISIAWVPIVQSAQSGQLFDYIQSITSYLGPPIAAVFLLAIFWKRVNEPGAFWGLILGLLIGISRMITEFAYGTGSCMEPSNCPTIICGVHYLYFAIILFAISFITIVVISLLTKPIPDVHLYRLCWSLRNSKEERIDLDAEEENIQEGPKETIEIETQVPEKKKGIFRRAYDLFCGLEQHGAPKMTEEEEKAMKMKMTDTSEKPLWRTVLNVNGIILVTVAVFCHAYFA
The experiment in a line: SGLT1 assay: Na-dependent 14C-AMG uptake in CHO-K1 cells stably expressing human SGLT1. It is filed as cell-based. Particulars: for IC50: 500 μM AMG, 2 hours at 37° C. In short, it runs like this: as §1

Consider `[2H]C1([2H])Cc2ccc(Cc3cc([C@@H]4O[C@H](CO)[C@@H](O)[C@H](O)[C@H]4O)c(F)cc3Cl)cc21` [Compound 71, (2S,3R,4R,5S,6R)-2-{5-[(8,8-dideuterium)bicyclo[4.2.0]octa-1(6),2,4-trien-3-ylmethyl]-4-chloro-2-fluorophenyl}-6-(hydroxymethyl)oxane-3,4,5-triol], for which the IC50 was 3 nM against human SGLT2 and 71 nM at human SGLT1.

On human SGLT2, `COc1cc(F)c(Cc2ccc3c(c2)CC3)cc1[C@@H]1O[C@H](CO)[C@@H](O)[C@H](O)[C@H]1O` [Compound 20, (2S,3R,4R,5S,6R)-2-(5-((1,2-dihydrocyclobutabenzen-4-yl)methyl)-4-fluoro-2-methoxyphenyl)-6-(hydroxymethyl)-tetrahydro-2H-pyran-3,4,5-triol] came in with an inhibition at 0.03 µM of 77%. At human SGLT1, testing at 0.3 µM gave an inhibition of 24%.

At human SGLT2, `Cc1c(Cc2ccc3c(c2)CC3)ccc(O)c1[C@@H]1O[C@H](CO)[C@@H](O)[C@H](O)[C@H]1O` [Compound 28, (2S,3R,4R,5S,6R)-2-(3-((1,2-dihydrocyclobutabenzen-4-yl)methyl)-6-hydroxy-2-methylphenyl)-6-(hydroxymethyl)-tetrahydro-2H-pyran-3,4,5-triol] returned an inhibition at 0.03 µM of 40%. On human SGLT1, the inhibition at 0.3 µM worked out at 50%.

With `COc1cc(Cl)c(Cc2ccc3c(c2)CC3)cc1[C@@H]1O[C@H](CO)[C@@H](O)[C@H](O)[C@H]1O` [Compound 9], the IC50 against human SGLT2 stood at 1 nM; on human SGLT1, 53 nM.

For `[2H]C1([2H])Cc2ccc(Cc3cc([C@@H]4O[C@H](CO)[C@@H](O)[C@H](O)[C@H]4O)c(OC)cc3Cl)cc21` [Compound 67, (2S,3R,4R,5S,6R)-2-(5-{[(8,8-dideuterium)bicyclo[4.2.0]octa-1(6),2,4-trien-3-yl]methyl}-4-chloro-2-methoxyphenyl)-6-(hydroxymethyl)oxane-3,4,5-triol], the IC50 on human SGLT2 came to 2 nM; at human SGLT1 it was 48 nM.

As to `Cc1cc(O)c([C@@H]2O[C@H](CO)C(F)(F)[C@H](O)[C@H]2O)cc1Cc1ccc2c(c1)CC2` [Compound 92, (2S,3R,4R,6R)-2-(5-(bicyclo[4.2.0]octa-1(6),2,4-trien-3-ylmethyl)-2-hydroxy-4-methylphenyl)-5,5-difluoro-6-(hydroxymethyl)tetrahydro-2H-pyran-3,4-diol], the figures for the IC50 against human SGLT2 and against human SGLT1 were 2 nM and 14 nM, respectively.

Regarding `[2H]C([2H])(c1ccc2c(c1)CC2)c1cc([C@@H]2O[C@H](CO)[C@@H](O)[C@H](O)[C@H]2O)c(O)cc1C` (single isomer, unassigned) [Compound 52], the values for the IC50 at human SGLT2 and on human SGLT1 were 1 nM and 4 nM, respectively.

As to `OC[C@H]1O[C@@H](c2ccc(C3CC3)c(Cc3ccc4c(c3)CC4)c2)[C@H](O)[C@@H](O)[C@@H]1O` [Compound 5, (2S,3R,4R,5S,6R)-2-(4-cyclopropyl-3-((1,2-dihydrocyclobutabenzen-4-yl)methyl)phenyl)-6-(hydroxymethyl)-tetrahydro-2H-pyran-3,4,5-triol], the IC50 on human SGLT2 was found to be 5 nM; against human SGLT1, 32 nM.

As a reminder, the IC50 is the point on the concentration scale where inhibition reaches its midpoint. One may read the inhibition as the drop in the measured response relative to a control, in per cent.
